Where “and” joins values, the source holds several entries; their conditions need not be identical. Identical values can stand only once.
Key:
[1] = target: HIS-Keap1 full length / Biotin-Nrf2 (16-mer) (Homo sapiens, UniProt Q14145); assay: biochemical
[2] = test system: NQO1 activation in BEAS-2B cells; assay: BEAS-2B cellular MTT assay of NQO1 activation, 0.3% HSA; format: cell-based
Method in brief: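 MTT read-out in BEAS-2B cells grown in BEBM with SingleQuots, no GA-1000, kept below 70% confluence; plates coated with collagen, with 0.3% or 0% HSA medium, seeded to 95-100% confluency at 48 h, 37 °C, 5% CO2.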

[3] = test system: NQO1 activation in BEAS-2B cells; assay: BEAS-2B cellular MTT assay of NQO1 activation, 0% HSA; format: cell-based
Method in brief: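 For the 0% HSA condition, cells were seeded into collagen plates in HSA-free medium. Culture was BEAS-2B in BEBM plus BEGM SingleQuots lacking GA-1000, held under 70% confluence, at a seeding density reaching 95-100% confluence by 48 h.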

[4] = Homo sapiens, BEAS+, read-out: BEAS+ EC50
[5] = Homo sapiens, serum free, read-out: BEAS EC50 (nM) serum free
[6] = serum free, read-out: BEAS EC50 (nM) serum free
[7] = BEAS+ W, read-out: BEAS+ W EC50
[8] = Homo sapiens, BEAS+ W, read-out: BEAS+ W EC50
[9] = Homo sapiens, Serum Free W, read-out: BEAS EC50 (nM) Serum Free W
[10] = Serum Free W, read-out: BEAS EC50 (nM) Serum Free W

HIS-Keap1 full length / Biotin-Nrf2 (16-mer), sequence (Q14145 whole entry): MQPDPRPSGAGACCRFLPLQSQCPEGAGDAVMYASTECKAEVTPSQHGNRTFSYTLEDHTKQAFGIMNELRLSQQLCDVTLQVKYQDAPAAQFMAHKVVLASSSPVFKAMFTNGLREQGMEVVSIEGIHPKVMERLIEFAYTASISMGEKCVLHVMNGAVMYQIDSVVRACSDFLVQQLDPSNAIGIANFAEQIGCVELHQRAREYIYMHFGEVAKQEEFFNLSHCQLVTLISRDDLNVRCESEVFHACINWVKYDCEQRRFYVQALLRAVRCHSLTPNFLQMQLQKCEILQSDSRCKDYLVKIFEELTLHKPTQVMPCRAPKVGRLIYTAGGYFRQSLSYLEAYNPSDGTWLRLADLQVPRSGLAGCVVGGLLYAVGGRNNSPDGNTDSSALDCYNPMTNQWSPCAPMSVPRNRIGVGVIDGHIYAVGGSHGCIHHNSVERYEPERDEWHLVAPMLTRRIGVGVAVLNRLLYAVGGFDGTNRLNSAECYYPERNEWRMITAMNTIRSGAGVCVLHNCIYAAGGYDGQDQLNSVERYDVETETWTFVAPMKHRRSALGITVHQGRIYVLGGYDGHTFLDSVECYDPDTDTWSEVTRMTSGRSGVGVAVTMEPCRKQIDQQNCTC

Row | SMILES | IC50 [1] | EC50 ([2]; BEAS+, read-out: BEAS+ EC50) | EC50 [2, 4] | EC50 [3, 5] | EC50 [3, 6] | EC50 [2, 7] | EC50 [2, 8] | EC50 [3, 9] | EC50 [3, 10]
1 | Cc1cc2ccc1OCCCCCn1nnc3c(C)c(ccc31)C(CC(=O)O)c1ccc3c(c1)CN(CC3)C2=O (stereo not shown) [Compound 261] | 3 nM | 113 nM | 198 nM | 89.8 nM | 93 nM |  |  |  | 
2 | O=C(O)CC1c2ccc(cc2)OCCCCCOc2ccc(cc2)C(=O)N2CCc3ccc1cc3C2 (stereo not shown) [Compound 399] | > 1000 nM and 335 nM | 2000 nM | 1980 nM | 479 nM | 407 nM |  |  |  | 
3 | Cc1c2ccc3c1nnn3CCCCCc1cc(F)c(c(F)c1)C(=O)N1CCc3ccc(cc3C1)C2CC(=O)O (stereo not shown) [Compound 263] | 2.7 nM and 3 nM |  | 20.4 nM | 18.3 nM |  |  |  |  | 
4 | Cc1cc2ccc1C(=O)N1CCc3ccc(cc3C1)C(CC(=O)O)c1ccc(nc1)OCCCCC2 (stereo not shown) [Compound 154] | 3.3 nM and 3.5 nM | 35.8 nM | 37.8 nM | 16.6 nM | 13.6 nM |  |  |  | 
5 | Cc1cc2ccc1C(=O)N1CCc3ccc(cc3C1)[C@@H]([C@H](C)C(=O)O)c1ccc3c(c1)nnn3CCCCCCO2 [Compound 294] | 22.1 nM and 17.3 nM |  | 809 nM | 450 nM |  |  |  |  | 
6 | Cc1c2ccc3c1nnn3CCCCCc1ccc(cc1OC(F)F)C(=O)N1CCc3ccc(cc3C1)[C@@H]2CC(=O)O [Compound 38] | 0.4 nM and 0.3 nM |  |  |  |  | 17 nM | 15 nM | 4.8 nM | 4.5 nM
7 | O=C(O)CC1c2ccc(nc2)OCCCCCc2cnc(nc2)C(=O)N2CCc3ccc1cc3C2 (stereo not shown) [Compound 196] | 130 nM and 116 nM |  | > 10000 nM | > 10000 nM |  |  |  |  | 
8 | C[C@@H](C(=O)O)[C@H]1c2ccc(nc2)OCC/C=C/Cc2ccc(cc2)C(=O)N2CCc3ccc1cc3C2 [Compound 66] | 31.9 nM and 29.5 nM |  |  |  |  | 55.6 nM | 39.3 nM | 20.6 nM | 27.6 nM
9 | COc1cc2ccc1CCCCCn1nnc3c(C)c(cnc31)[C@H](CC(=O)O)c1ccc3c(c1)CN(CC3)C2=O [Compound 87] | 0.8 nM and 0.9 nM |  |  |  |  | 38.1 nM | 40.5 nM | 13 nM | 18.2 nM
10 | Cc1c2ccc3c1nnn3C/C=C/COCc1ccc(c(F)c1)C(=O)N1CCc3ccc(cc3C1)C2CC(=O)OCCO (stereo not shown) [Compound 361] | 918 nM and 740 nM |  |  |  |  | 1280 nM | 1660 nM | > 1000 nM | 
11 | Cn1c2cc3cc(cnc31)CCCCCn1nnc3c(Cl)c(ccc31)C(CC(=O)O)c1ccc3c(c1)CN(CC3)C2=O (stereo not shown) [Compound 174] | 2 nM and 2.1 nM | 15.5 nM | 29.4 nM | 5.8 nM | 7.3 nM |  |  |  | 
12 | Cc1c2ccc3c1nnn3CCCCCCOc1ccc(nc1)C(=O)N1CCc3ccc(cc3C1)C2CC(=O)O (stereo not shown) [Compound 227] | 2.1 nM | 932 nM | 1130 nM | 517 nM | 568 nM |  |  |  | 
13 | O=C(O)CC1c2ccc(nc2)OCCCCCc2ccc(cc2)C(=O)N2CCc3ccc1cc3C2 (stereo not shown) [Compound 300] | < 0.1 nM | 7.9 nM | 10.8 nM | 3.1 nM | 5.4 nM |  |  |  | 
14 | Cc1cc2ncc1[C@H](CC(=O)O)c1ccc3c(c1)CN(CC3)C(=O)c1c(F)cc(cc1F)CCCCCO2 [Compound 120] | 0.3 nM and 0.4 nM |  |  |  |  | 7.6 nM and 4.6 nM and 6.3 nM | 7.9 nM | 1.4 nM | 
15 | Cc1c2ccc3c1nnn3CCCCCOc1ccc(c3ccccc13)C(=O)N1CCc3ccc(cc3C1)C2CC(=O)O (stereo not shown) [Compound 283] | 1.1 nM and 1.7 nM |  | 418 nM | 450 nM |  |  |  |  | 
16 | Cc1cc2ccc1C(=O)N1CCc3ccc(cc3C1)[C@H]([C@H](C)C(=O)O)c1ccc3c(c1)nnn3CCCCCCO2 [Compound 292] | 7.7 nM and 5.9 nM |  | 637 nM | 349 nM |  |  |  |  | 
17 | O=C(O)CC1c2ccc3c(c2)CN(CC3)C(=O)c2ccc(cc2Cl)OCCCCCCn2nnc3cc1ccc32 (stereo not shown) [Compound 305] | < 0.1 nM | 748 nM | 651 nM | 345 nM |  |  |  |  | 
18 | Cc1c2ccc3c1nnn3CCCCCCOc1ccc(cc1)C(=O)N1CCc3ccc(cc3C1)[C@@H]2[C@H](C)C(=O)O [Compound 179] | 5.7 nM | 208 nM | 235 nM | 113 nM | 91.5 nM |  |  |  | 
19 | Cc1c2cnc3c1nnn3CCCCCc1cc(F)c(c(F)c1)C(=O)N1CCc3ccc(cc3C1)C2CC(=O)O (stereo not shown) [Compound 168] | 2.2 nM | 3.4 nM | 3.7 nM | 1.3 nM | 1.2 nM |  |  |  | 
20 | Cc1cc2cnc1OCC/C=C/Cc1ccc(cc1)C(=O)N1CCc3ccc(cc3C1)[C@@H]2[C@@H](C)C(=O)O [Compound 83] | 4420 nM and 3910 nM |  |  |  |  | 8440 nM | > 10000 nM | > 1000 nM | 1780 nM

Row | SMILES | IC50 [1] | EC50 ([2]; BEAS+, read-out: BEAS+ EC50) | EC50 [2, 4] | EC50 [3, 5] | EC50 [3, 6] | EC50 [2, 7] | EC50 [2, 8] | EC50 [3, 9] | EC50 [3, 10]
21 | O=C(O)C[C@@H]1c2ccc(nc2)OCCCCCc2ccc(cc2)C(=O)N2CCc3ccc1cc3C2 [Compound 173] | 12.5 nM and 12.4 nM | 13.1 nM | 12.8 nM | 3.7 nM | 4.3 nM |  |  |  | 
22 | Cc1c2ccc3c1nnn3CCCCCCc1ccc(cc1)C(=O)N1CCc3ccc(cc3C1)[C@H]2CC(=O)O [Compound 202] | 7.2 nM and 6.8 nM and 7.1 nM | 298 nM and 338 nM | 200 nM | 58.2 nM | 55.5 nM and 69.1 nM |  |  |  | 
23 | Cc1cc2ccc1C(=O)N1CCc3ccc(cc3C1)C(CC(=O)O)c1cnc(nc1C)OCCCCO2 (stereo not shown) [Compound 195] | 62.3 nM and 69.9 nM |  | > 10000 nM | 5570 nM | > 10000 nM |  |  |  | 
24 | Cc1c2ccc3c1nnn3CCCCCc1cnc3c(c1)cc(n3C)C(=O)N1CCc3ccc(cc3C1)[C@@H]2CC(=O)O [Compound 112] | 0.3 nM |  |  |  |  | 25.5 nM | 23 nM | 2.9 nM | 2.7 nM
25 | Cc1cc2cc3c1CCN(C3)C(=O)c1ccc(cc1)CCCCCCn1nnc3c(C)c(cnc31)[C@H]2CC(=O)O [Compound 93] | 1.3 nM and 1.4 nM |  |  |  |  | 17.1 nM | 15.4 nM | 3.4 nM | 2.7 nM
26 | Cc1c2ccc3c1nnn3CCCCc1ccc3c(cn(C)c3c1)C(=O)N1CCc3ccc(cc3C1)C2CC(=O)O (stereo not shown) [Compound 359] | 7.4 nM and 8.1 nM |  |  |  |  |  | > 10000 nM | > 1000 nM | 
27 | Cc1cc2ccc1C(=O)N1CCc3ccc(cc3C1)C(CC(=O)O)c1cnc(cc1C)OCCCCC2 (stereo not shown) [Compound 163] | 2.4 nM | 9.3 nM | 10 nM | 2.6 nM | 3.3 nM |  |  |  | 
28 | Cc1c2n(C)c3ccc(cc13)CCCCCCn1nnc3c(C)c(cnc31)[C@@H](CC(=O)O)c1ccc3c(c1)CN(CC3)C2=O [Compound 63] | 0.5 nM and 0.4 nM |  |  |  |  | 3.7 nM and 3.5 nM | 2.8 nM | 0.7 nM | 0.9 nM
29 | Cc1c2ccc3c1nnn3CCCCCCOc1ncc(cn1)C(=O)N1CCc3ccc(cc3C1)C2CC(=O)O (stereo not shown) [Compound 377] | 5.7 nM and 5.8 nM | 3210 nM | 3170 nM | 2940 nM | 2650 nM |  |  |  | 
30 | CC(C)(C(=O)O)C1c2ccc3c(c2)CN(CC3)C(=O)c2ccc(cc2)CCCCCCn2nnc3cc1ccc32 (stereo not shown) [Compound 279] | 2.3 nM and 2.2 nM (2×) and 2.1 nM |  | 10.7 nM | 10.8 nM |  |  |  |  | 
31 | COc1cc2ccc1CCCCCn1nnc3c(C)c(cnc31)[C@@H](CC(=O)O)c1ccc3c(c1)CN(CC3)C2=O [Compound 86] | 0.9 nM and 0.8 nM |  |  |  |  | 25.7 nM | 20.4 nM | 18 nM | 19.7 nM
32 | O=C(O)CC1c2ccc(nc2)OCCCCCc2cc(F)c(c(F)c2)C(=O)N2CCc3ccc1cc3C2 (stereo not shown) [Compound 187] | 5.9 nM and 5.6 nM | 19.1 nM | 22 nM | 9.3 nM | 8.9 nM |  |  |  | 
33 | Cc1c2ccc3c1nnn3CCOC/C=C/c1ccc(c(F)c1)C(=O)N1CCc3ccc(cc3C1)C2CC(=O)O (stereo not shown) [Compound 365] | 3.4 nM and 3.6 nM |  |  |  |  | 214 nM | 188 nM | 90 nM | 171 nM
34 | Cc1cc2cc3c1CCN(C3)C(=O)c1ccc(cc1)CCCCCn1nnc3c(C)c(cnc31)C2CC(=O)O (stereo not shown) [Compound 105] | 0.8 nM |  |  |  |  | 9.1 nM | 11.6 nM | 3.9 nM | 4.2 nM
35 | Cc1c2ccc3c1nnn3CCCCCOc1cc(F)c(c(F)c1)C(=O)N1CCc3ccc(cc3C1)C2CC(=O)O (stereo not shown) [Compound 314] | 4.4 nM and 1.8 nM |  | 109 nM | 2.6 nM |  |  |  |  | 
36 | Cc1c2ccc3c1nnn3CCCCCc1ccc3c(c1)cc(n3C)C(=O)N1CCc3ccc(cc3C1)[C@@H]2[C@H](C)C(=O)O (racemic) [Compound 113] | 1.1 nM and 0.9 nM |  |  |  |  | 48.7 nM | 62.7 nM | 1.6 nM | 1.8 nM
37 | Cc1cc2ccc1C(=O)N1CCc3ccc(cc3C1)[C@@H](CC(=O)O)c1ccc3c(c1)nnn3CCCCCCO2 [Compound 327] | 0.8 nM and 2.3 nM |  | 179 nM | 52.9 nM | 46.9 nM |  |  |  | 
38 | Cn1c2cc3cc(ccc31)OCCCCCCn1nnc3cc(ccc31)C(CC(=O)O)c1ccc3c(c1)CN(CC3)C2=O (stereo not shown) [Compound 310] | 0.3 nM and < 0.1 nM | 9570 nM | 9100 nM | 698 nM |  |  |  |  | 
39 | Cc1c2ccc3c1nnn3CCCCCOc1ccc(c(Cl)c1)C(=O)N1CCc3ccc(cc3C1)C2CC(=O)O (stereo not shown) [Compound 302] | 0.8 nM and 0.9 nM | 196 nM | 134 nM | 129 nM | 213 nM |  |  |  | 
40 | Cc1cc2ncc1[C@H](CC(=O)O)c1ccc3c(c1)CN(CC3)C(=O)c1ccc(cc1)CCOCCO2 [Compound 350] | 11.5 nM and 10.1 nM and 9.8 nM and 10.2 nM |  |  |  |  | 426 nM | 276 nM | 161 nM | 145 nM

— patent publication US12692274B2, “Tetrahydroisoquinoline derivatives for the treatment of red blood disorders and inflammatory diseases” (Sanofi, priority 2020, dated 2026)
